Values of other authors in US11759504B2, “PTH compounds with low peak-to-trough ratios” (Ascendis Pharma Bone Diseases A/S, priority 2016, dated 2023).
Where two headings read alike, the source gives them in different places.

Key:
[1] = not given; remark: listed apart in the source

| Molecule | osteosarcoma rate (rats, daily injections) | patients who developed hypercalcemia at one or more measurements during a 24-hour period ([1]; human, in vivo) [%] | urinary calcium excretion ([1]; over the 24-hour period after injection) | treated participants who achieved normal blood calcium levels on reduced doses of calcium supplements and active forms of vitamin D ([1]; pivotal trial, once-daily sc) [%] | osteosarcoma rate (rat, in vivo) |
| --- | --- | --- | --- | --- | --- |
| CC[C@H](C)[C@H](NC(=O)[C@H](CCC(=O)O)NC(=O)[C@H](CO)NC(=O)[C@@H](NC(=O)[C@@H](N)CO)C(C)C)C(=O)N[C@@H](CCC(N)=O)C(=O)N[C@@H](CC(C)C)C(=O)N[C@@H](CCSC)C(=O)N[C@@H](Cc1cnc[nH]1)C(=O)N[C@@H](CC(N)=O)C(=O)N[C@@H](CC(C)C)C(=O)NCC(=O)N[C@@H](CCCCN)C(=O)N[C@@H](Cc1cnc[nH]1)C(=O)N[C@@H](CC(C)C)C(=O)N[C@@H](CC(N)=O)C(=O)N[C@@H](CO)C(=O)N[C@@H](CCSC)C(=O)N[C@@H](CCC(=O)O)C(=O)N[C@@H](CCCN=C(N)N)C(=O)N[C@H](C(=O)N[C@@H](CCC(=O)O)C(=O)N[C@@H](Cc1c[nH]c2ccccc12)C(=O)N[C@@H](CC(C)C)C(=O)N[C@@H](CCCN=C(N)N)C(=O)N[C@@H](CCCCN)C(=O)N[C@@H](CCCCN)C(=O)N[C@@H](CC(C)C)C(=O)N[C@@H](CCC(N)=O)C(=O)N[C@@H](CC(=O)O)C(=O)N[C@H](C(=O)N[C@@H](Cc1cnc[nH]1)C(=O)N[C@@H](CC(N)=O)C(=O)N[C@@H](Cc1ccccc1)C(=O)O)C(C)C)C(C)C [Forteo] | dose dependent increase in osteosarcoma rate |  |  |  |  |
| Natpara: PTH(1-84), approved 2015 for once-daily subcutaneous injection as adjunct to vitamin D and calcium in hypoparathyroidism |  | 71 | did not change | 42 | dose dependent increase in osteosarcoma rate |
